# From patent US8778643B2, “Methods for increasing lipid levels and producing triacylglycerols in algae” (priority 2012, dated 2014)
# Entries after “also recorded” stand apart in the source; their conditions may differ. Where two headings read alike, the source gives them in different places.
# Experiments:
# microalgae [1] = assay: Microplate assay (growth, Nile Red lipids), algae strain not stated
# Nannochloropsis salina [2] = tested on: Nannochloropsis salina
# Method: (§1) Stock cultures were aerated by stirring with bubbling air (homemade manifold with Petco air pump, 2-4% CO2) or by orbital shaking (Thermo Scientific MAXQ 2000) at a constant speed of 150 rpm at 22±3° C. with a 16:8 hour light/dark cycle. Stocks were kept at stationary phase for use. Algae were prepared as dictated by culture center.
# (§2) Compounds were selected based on reported biological activity in non-microalgae organisms. To ensure that compounds retained their quality, they were stored under advised conditions after purchasing from the manufacturer. Solutions of all assay compounds were prepared as 10 mM stock solutions by dissolving in DMSO in 2-dram amber vials and then stored in darkness −20° C. 96-well PCR plates were used to create a stock plate layout that was then transferred to the algae microplates. A plate map was used to distribute each compound to a well based on molecule name, collection number, and CAS number. For 20 μM and 200 nM assay plates, 10 mM compound stock in DMSO was diluted into plate maps of 5 mM and 50 μM assay stocks, respectively.
# (§3) All materials for assay experiments were autoclaved before each use to maintain axenic algae cultures. Algae species were checked for homogeneity using a TS-100 light microscope (Nikon, Japan). […] Diluted stock solutions were made immediately prior to use for consistency and optimal plate growth. Cell density was measured on a Thermo Scientific Genesys 10S Vis Spectrophotometer (ThermoFisher, San Jose), using a 1 mL cuvette at 680 nm.
# (§4) Plates were originally run in triplicate, before replicates were increased to quadruplicate, along with a separate control plate to compare growth. Due to extensive evaporation in exterior wells over time, our unique algae plate layout was designed to use the 60 interior wells out of 96 wells for the experiment. The 36 outer wells were filled with Millipore water and media to prevent evaporation and edge effects in the inner algae wells, as well as serve as blanks. The 60 wells with algae contained a total volume of 251 μL (100 μL of media+DMSO compound stock +150 μL dilute algae stock). For 20 μM and 200 nM assay plates, 10 mM compound stock in DMSO is diluted into plate maps of 5 mM and 50 μM assay stocks, respectively. […] Plates were parafilmed during growth to limit the amount of evaporation that can occur. Plates were numbered, and numerically ordered to ensure they got the same shaker space.
# (§5) The shakers are kept at a constant shaking of 150 rpm. Ambient temperature is 22±3° C.
# Nannochloropsis salina [3] = assay: 500 mL batch culture: growth, dry weight and lipid extract (gravimetric); assay type: cell-based; settings: for effect on growth and lipid levels: 500 mL batch culture
# Method: (§6) Batch cultures were grown in 500 mL Pyrex media bottles with stirring and air bubbling (homemade manifold with Petco air pump, 2-4% CO2). Incoming air was sterile filtered by Polyvent 4 disposable filters (Whatman, Kent, UK). […] To minimize bacterial contamination, all equipment and materials were autoclaved and media was added to flask in a Purifier Vertical Clean bench (Labconco, Kansas City, Mo.). […] The amount of DMSO is standardized for all experiments to 0.4%.
# (§7) For all compound cultures, the 2 mL DMSO stock solution was added to media (without algae) first and mixed well. Control cultures were grown without DMSO. DMSO controls consisted of 0.04-1.0% DMSO. After the addition of algae and media, the container was plugged with a bug stopper vented closure cap and mixed thoroughly. Absorbance is measured immediately for Day 0 analysis. Afterward, absorbance was measured every 1-2 days with a cuvette (1 mL volume) on the Thermo Scientific Genesys 10S V is Spectrophotometer (ThermoFisher, San Jose) at 680 nm.
# (§8) Batch cultures were also repeated in triplicate and compared to a control culture grown at the same time. Algae were harvested and lipids were extracted for gravimetric analysis.
# Cultures were harvested at day 6 in stationary phase. Cultures were pelleted, lyophilized, and extracted side-by-side. The experiment was performed in triplicate.
# The nonpolar algal extracts were harvested from 500 mL cultures when indicated on growth curves, a minimum of 3 days into stationary phase. […] Cells were crushed and nonpolar lipids were extracted by sonication (Fisher Scientific Model 120 Sonic Dismembrator, ThermoFisher, San Jose) for 1 minute in chloroform, followed by chloroform-methanol extractions, washed with PBS butter, and dried under vacuum.^55-60 The crude non-polar algae extracts were then analyzed by ^1H Nuclear Magnetic Resonance (^1H NMR) for verification of TAG presence and examination of the purity of the extract (determination of level of chlorophyll).
# (§9) Cell density was monitored by measuring absorbance at 680 nm every 1-2 days.
# (§10) 500-mL cultures were harvested 6 days into stationary phase based on absorbance values. Cells were concentrated by centrifugation and lyophilization to remove water. Nonpolar lipids were extracted by sonication and solvent (chloroform-methanol and PBS buffer). […] Changes in lipid levels for batch cultures were determined by crude lipid extract mass.
# Nannochloropsis oculata [4] = settings: for % Increase based on Nile Red Fluorescence Intensity: DMSO delivery, added t=day 0
# Method: as §1, §2, §3, §4, §5
# Nannochloropsis oculata [5] = assay: 500 mL batch culture: growth, dry weight and lipid extract (gravimetric); assay type: cell-based; settings: for effect on growth and lipid levels: 500 mL batch culture; for Change in Lipids: gravimetric, relative to averaged control without DMSO; for Specific Growth Rate: mid-exponential growth phase
# Method: as §6, §7, §8
# (§11) The nonpolar algal extracts were harvested from 500 mL cultures when indicated on growth curves, a minimum of 3 days into stationary phase.
# as §9, §10
# Nannochloris sp. [6] = assay: as above; assay type: cell-based; settings: for effect on growth and lipid levels: 500 mL batch culture; for increase in lipid levels: 500 mL batch cultures, gravimetric (Table 30); for Lipid productivity / Change in Lipids / Specific Growth Rate: Nannochloris sp., 500 mL culture; for Change in Lipids: gravimetric, relative to averaged control without DMSO; for Specific Growth Rate: mid-exponential growth phase
# Method: as §6, §7, §8, §11, §9, §10
# Nannochloropsis oculata [7] = assay: Lipid composition of batch culture extracts (fatty acid saturation / PUFA by 1H NMR, MALDI-TOF, GC/MS); assay type: cell-based; settings: for SFAs (%) / MUFAs (%) / n3 PUFAs (%) / PUFAs (%): N. oculata, n=1; for SFAs (%): Normal 0 ± 1; for MUFAs (%): Normal 4 ± 7; for n3 PUFAs (%): Normal 28 ± 4; for PUFAs (%): Normal 96 ± 7; for SFAs (% of total lipids) / n3 PUFAs (% of UFAs) / All other PUFAs and MUFAs (% of UFAs) / UFAs (% of total lipids): 1H NMR; for SFAs (% of total lipids): Normal 24; for n3 PUFAs (% of UFAs): Normal 37; for All other PUFAs and MUFAs (% of UFAs): Normal 63; for UFAs (% of total lipids): Normal 76
# Method: The nonpolar algal extracts were harvested from 500 mL cultures when indicated on growth curves, a minimum of 3 days into stationary phase. […] Cells were crushed and nonpolar lipids were extracted by sonication (Fisher Scientific Model 120 Sonic Dismembrator, ThermoFisher, San Jose) for 1 minute in chloroform, followed by chloroform-methanol extractions, washed with PBS butter, and dried under vacuum.^55-60 The crude non-polar algae extracts were then analyzed by ^1H Nuclear Magnetic Resonance (^1H NMR) for verification of TAG presence and examination of the purity of the extract (determination of level of chlorophyll). The extracts were then divided for analysis; one part for transesterification, one part to save as crude extract, and one part for SPE separation and MALDI-TOF analysis of TAGs.
# Triacylglycerols can be isolated by solid-phase extraction (SPE) with 500 mg silica SPE cartridges (Silicycle, Quebec). The nonpolar extract is dissolved in 300 μL hexanes, and loaded on the SPE cartridge primed with hexanes. A mixture of 80:20:1 hexanes/diethyl ether/acetic acid was used as mobile phase to elute the TAGs.^61 SPE removes any chlorophyll in this process. Residual polar fraction containing polar lipids and chlorophyll was obtained by elution with acetone. All extracts and TAG fractions were dried under vacuum and stored under argon in amber vials at −20° C. before spectroscopic analysis. After SPE, the purified TAG fraction was reanalyzed with ^1H NMR spectroscopy for TAG characterization.
# The TOF was in Reflectron mode with laser intensity from 5500-6500 Volts. Each acquisition consisted of 2500 shots with a focus mass of 900 Da, and a scan range of m/z 400-1100. Multiple acquisition scans were performed at different laser intensities to determine optimal conditions. Samples for the MALDI-TOF were diluted to 5 mg/mL in hexane, and spotted in the fast-evaporation method in a 1:2 ratio with DHB (2,5-dihydroxybenzoic acid) as the matrix. Re-spotting with methanol allowed for the matrix and sample to mix without hexane interactions, and allowed for better crystal formation. All samples on MALDI plate were allowed to dry before MS analysis. Data was normalized to base peak in all cases.
# After the initial weight was recorded, the nonpolar extract set aside for transesterification was dissolved in 3.0 mL of 0.6 M sulfuric acid in methanol and stirred vigorously at 60° C. for 45 minutes.
# Initial GC/MS temperature was 50° C. and end was 200° C. over at a one hour period for optimal FAME peak separation.
# Peak assignment of fatty acids and their derivatives are based on NMR spectroscopic studies of previously reported algal lipid extracts^9 and comparison to standards such as olive oil (ACROS) and fatty acid mixtures.
# We developed a quick and robust method to screen if the screened compound effect fatty acid saturation levels using ^1H NMR spectroscopy. The amount of saturated fatty acids (SFA), monounsaturated fatty acids (MUFAs), and polyunsaturated fatty acids (PUFAs) was determined using peak area ratios.
# Calculated based on ^1H NMR integral ratios for the proton signals for the methyl group of PUFA components vs. the methyl groups of monounsaturated and saturated components.
# [8] = tested on: Phaeodactylum tricornutum; assay: 500 mL batch culture: growth, dry weight and lipid extract (gravimetric); assay type: cell-based; settings: 500 mL batch culture
# Method: as §6, §7, §8, §11, §9, §10
# microalgae [9] = assay: 500 mL batch culture (growth, gravimetric lipids), algae strain not stated; assay type: cell-based; settings: 500 mL batch cultures (Table 30)
# Nannochloris sp. [10] = assay: Microplate assay: growth (absorbance 680 nm) and intracellular lipids (Nile Red fluorescence); assay type: cell-based
# [11] = tested on: Phaeodactylum tricornutum; assay: as above; assay type: cell-based
# Method: as §1, §2, §3, §4, §5
# PKC = settings: PKC; cited from earlier work
# [12] = 0.4% by volume, 500 mL culture, day 6 in stationary phase
# [13] = DMSO at 0.4% v/v, batch culture
# [14] = N. oculata, DMSO average, harvested day 6 of stationary phase, n=3
# [15] = microplate dose-response screening
# [16] = 200 nM, initial microplate screen, relative to control
# [17] = 20 μM, initial microplate screen, relative to control
# [18] = 500 mL batch cultures, gravimetric (Table 30)
# [19] = N. oculata, 4 nM, harvested day 6 of stationary phase, n=3
# [20] = N. oculata, 500 mL culture, 4 nM
# [21] = N. oculata, 500 mL culture, 400 nM
compound,measurement,setting,value
"C[S+](C)[O-] [DMSO, dimethylsulfoxide]",effect on growth (deviation from control growth),microalgae [1]; 0.4% v/v DMSO,≤ 10%
same,effect on growth,"microalgae [1]; less than 0.4% v/v DMSO, microplates, any of the four microalgae strains",did not show a toxic or detrimental effect on the growth
same,effect on growth,microalgae [1]; ≧1% v/v DMSO,detrimental growth effects
same,effect on growth and cell density,"Nannochloropsis salina [2]; >0.8% v/v DMSO, microplates",detrimental effect on growth and cell density
same,Absorbance at harvest,Nannochloropsis salina [3]; [12],1.50 ± 0.13
same,Dry weight,Nannochloropsis salina [3]; [12],429.90 ± 109.74 mg
same,Extract Weight,Nannochloropsis salina [3]; [12],92.83 ± 6.37 mg
same,Number of Cells,Nannochloropsis salina [3]; [12],1.44E+09
same,Recovered Weight,Nannochloropsis salina [3]; [12],393.17 ± 112.84 mg
same,effect on growth and lipid levels,Nannochloropsis salina [3],increased growth and lipid levels
same,increase in lipid levels,Nannochloropsis salina [3]; [13],25%
same,increase in lipid levels,"Nannochloropsis salina [3]; DMSO, batch culture (Table 18)",up to 50%
same,increase in cell density,"Nannochloropsis oculata [4]; 0.4% DMSO, microplate screen",57%
same,increase in lipid levels,"Nannochloropsis oculata [4]; 0.4% DMSO, microplate screen",75%
same,effect on growth and cell density,"Nannochloropsis oculata [4]; >0.8% v/v DMSO, microplates",detrimental effect on growth and cell density
same,increase in lipid levels relative to control without DMSO,"Nannochloropsis oculata [5]; 1.0% DMSO, batch cultures",78%
same,effect on growth and lipid levels,Nannochloropsis oculata [5],increased growth and lipid levels
same,increase in lipid levels,Nannochloropsis oculata [5]; [13],39%
same,Absorbance at harvest,"Nannochloropsis oculata [5]; N. oculata, DMSO (0.4%), n=3",1.776 ± 0.060
same,Dry weight,"Nannochloropsis oculata [5]; N. oculata, DMSO (0.4%), n=3",409.2 ± 105.6
same,Extract Weight,"Nannochloropsis oculata [5]; N. oculata, DMSO (0.4%), n=3",67.2 ± 7.8
same,Absorbance at harvest,"Nannochloropsis oculata [5]; N. oculata, DMSO (1%), n=2",1.827 ± 0.288
same,Dry weight,"Nannochloropsis oculata [5]; N. oculata, DMSO (1%), n=2",280.4 ± 88.0
same,Extract Weight,"Nannochloropsis oculata [5]; N. oculata, DMSO (1%), n=2",47.2 ± 11.0
same,Absorbance at harvest,Nannochloropsis oculata [5]; [14],1.83
same,Dry weight,Nannochloropsis oculata [5]; [14],283.27 mg
same,Extract Weight,Nannochloropsis oculata [5]; [14],56.83 mg
same,Number of Cells,Nannochloropsis oculata [5]; [14],2.32E+09
same,Recovered Weight,Nannochloropsis oculata [5]; [14],267.27 mg
same,effect on growth and lipid levels,Nannochloris sp. [6],"No significant changes; also recorded: no effect, or a small decrease in growth and lipid production"
same,SFAs (%),Nannochloropsis oculata [7]; 1%,7%
same,MUFAs (%),Nannochloropsis oculata [7]; 1%,32%
same,n3 PUFAs (%),Nannochloropsis oculata [7]; 1%,17%
same,PUFAs (%),Nannochloropsis oculata [7]; 1%,61%
same,effect on growth and lipid levels,[8],"No significant changes; also recorded: decrease in growth and lipid production; also recorded: no effect, or a small decrease in growth and lipid production"
"C=C[C@@]1(C)CC(=O)[C@]2(O)[C@@]3(C)[C@@H](O)CCC(C)(C)[C@@H]3[C@H](O)[C@H](OC(C)=O)[C@@]2(C)O1 [Forskolin, (3R,4aR,5S,6S,6aS,10S,10aR,10bS)-6,10,10b-Trihydroxy-3,4a,7,7,10a-pentamethyl-1-oxo-3-vinyldodecahydro-1H-benzo[f]chromen-5-yl acetate]",effect on growth and lipid levels,microalgae [9],positive increases in growth and lipid levels
same,lipid increase relative to the control,Nannochloropsis salina [2]; [15],~40%
same,Nile Red percent increase,"Nannochloris sp. [10]; 13 nM, dose-response microplate screen",121%
same,Nile Red percent increase,"Nannochloris sp. [10]; 41.2 nM, dose-response microplate screen",118%
same,Absorbance (percent increase),Nannochloris sp. [10]; [16],−5.5%
same,Nile Red percent increase,Nannochloris sp. [10]; [16],60.6%
same,Nile Red Fluorescence % Increase,"Nannochloris sp. [10]; Nannochloris sp., compounds tested at 20 μM, initial screening, p<0.05",45.3%
same,lipid increase relative to the control,Nannochloris sp. [10]; [15],≥ 100%
same,Absorbance (percent increase),[11]; [16],−1.2%
same,Nile Red percent increase,[11]; [16],103.6%
same,lipid increase relative to the control,[11]; [15],~40%
same,effect on growth and lipid levels,Nannochloropsis salina [3],increases in lipid production
same,Absorbance (percent increase),Nannochloropsis oculata [4]; [17],−17.3%
same,Nile Red percent increase,Nannochloropsis oculata [4]; [17],50.4%
same,lipid increase relative to the control,Nannochloropsis oculata [4]; [15],≥ 100%
same,effect on growth and lipid levels,Nannochloropsis oculata [5],increases in lipid production
same,increase in lipid levels,Nannochloropsis oculata [5]; [18],84%
same,Absorbance at harvest,Nannochloropsis oculata [5]; [19],2.10
same,Dry weight,Nannochloropsis oculata [5]; [19],353.57 mg
same,Extract Weight,Nannochloropsis oculata [5]; [19],88.67 mg
same,Number of Cells,Nannochloropsis oculata [5]; [19],2.46E+09
same,Recovered Weight,Nannochloropsis oculata [5]; [19],344.90 mg
same,Lipid productivity,Nannochloropsis oculata [5]; [20],6.4 ± 1.2 mgL^−1day^−1
same,Lipid content,"Nannochloropsis oculata [5]; N. oculata, 500 mL culture, 4 nM, dried lipid extract per dry biomass",25.6 ± 1.8 % w/w
same,Change in Lipids,Nannochloropsis oculata [5]; [20],84%
same,Specific Growth Rate,Nannochloropsis oculata [5]; [20],0.17 ± 0.02 day⁻¹
same,effect on growth and lipid levels,Nannochloris sp. [6],increases in lipid production
same,increase in lipid levels,Nannochloris sp. [6],51%
same,Lipid productivity,Nannochloris sp. [6]; 10 μM,4.5 ± 1.7 mgL^−1day^−1
same,Change in Lipids,Nannochloris sp. [6]; 10 μM,51%
same,Specific Growth Rate,Nannochloris sp. [6]; 10 μM,0.15 ± 0.05 day⁻¹
same,SFAs (% of total lipids),Nannochloropsis oculata [7]; 40 nM,59 % of total lipids
same,n3 PUFAs (% of UFAs),Nannochloropsis oculata [7]; 40 nM,61 % of UFAs
same,All other PUFAs and MUFAs (% of UFAs),Nannochloropsis oculata [7]; 40 nM,39 % of UFAs
same,UFAs (% of total lipids),Nannochloropsis oculata [7]; 40 nM,41 % of total lipids
COC(=O)[C@@]1(O)C[C@H]2O[C@]1(C)n1c3ccccc3c3c4c(c5c6ccccc6n2c5c31)C(=O)NC4 [K-252a],Ki,PKC,25 nM
"CCN(CC)CCCC(C)Nc1c2ccc(Cl)cc2nc2ccc(OC)cc12.Cl.Cl (stereo not shown) [Quinacrine, 6-Chloro-9-(4-diethylamino-1-methylbutyl-amino)-2-methoxyacridine dihydrochloride]",effect on growth and lipid levels,microalgae [9],positive increases in growth and lipid levels
same,Nile Red percent increase,"Nannochloropsis salina [2]; 55 nM, dose-response microplate screen",103%
same,% Increase based on Nile Red Fluorescence Intensity,Nannochloris sp. [10],135%
same,% Lipid increase based on Nile red fluorescence intensity,"Nannochloris sp. [10]; Nannochloris sp., 49 nM, (water), t=day 0",136%
same,% Increase based on Nile Red Fluorescence Intensity,"Nannochloris sp. [10]; Nannochloris sp., 49 nM, dissolved in water, added t=day 0",136%
same,increase in intracellular lipids compared to the control (Nile red),"Nannochloris sp. [10]; in water, dose-response microplate screening",more than 100%
same,Lipid productivity,"Nannochloropsis salina [3]; N. salina, 500 mL culture, 40 nM",4.5 ± 1.0 mgL^−1day^−1
same,Lipid content,"Nannochloropsis salina [3]; N. salina, 500 mL culture, 40 nM, dried lipid extract per dry biomass",26.5 ± 3.9 % w/w
same,Change in Lipids,"Nannochloropsis salina [3]; N. salina, 500 mL culture, 40 nM, gravimetric, relative to averaged control without DMSO",6%
same,Specific Growth Rate,"Nannochloropsis salina [3]; N. salina, 500 mL culture, 40 nM, mid-exponential growth phase",0.25 ± 0.02 day⁻¹
same,% Lipid increase based on Nile red fluorescence intensity,"Nannochloropsis oculata [4]; N. oculata, 244 nM, DMSO, t=day 0",106%
same,% Increase based on Nile Red Fluorescence Intensity,"Nannochloropsis oculata [4]; N. oculata, 61 pM",100%
same,% Increase based on Nile Red Fluorescence Intensity,"Nannochloropsis oculata [4]; N. oculata, 244 pM",106%
same,% Increase based on Nile Red Fluorescence Intensity,"Nannochloropsis oculata [4]; N. oculata, 976 pM",93%
same,% Increase based on Nile Red Fluorescence Intensity,"Nannochloropsis oculata [4]; N. oculata, 4 nM",75%
same,% Increase based on Nile Red Fluorescence Intensity,"Nannochloropsis oculata [4]; N. oculata, 15.6 nM",66%
same,increase in lipid levels,Nannochloropsis oculata [5]; [18],51%
same,Lipid productivity,Nannochloropsis oculata [5]; [21],5.2 ± 0.6 mgL^−1day^−1
same,Change in Lipids,Nannochloropsis oculata [5]; [21],51%
same,Specific Growth Rate,Nannochloropsis oculata [5]; [21],0.18 ± 0.04 day⁻¹
same,increase in lipid levels,Nannochloris sp. [6],31%
same,Lipid productivity,Nannochloris sp. [6]; 40 nM,4.2 ± 1.1 mgL^−1day^−1
same,Change in Lipids,Nannochloris sp. [6]; 40 nM,31%
same,Specific Growth Rate,Nannochloris sp. [6]; 40 nM,0.18 ± 0.01 day⁻¹
same,SFAs (% of total lipids),Nannochloropsis oculata [7]; 4 nM,53 % of total lipids
same,n3 PUFAs (% of UFAs),Nannochloropsis oculata [7]; 4 nM,45 % of UFAs
same,All other PUFAs and MUFAs (% of UFAs),Nannochloropsis oculata [7]; 4 nM,55 % of UFAs
same,UFAs (% of total lipids),Nannochloropsis oculata [7]; 4 nM,47 % of total lipids
same,SFAs (%),Nannochloropsis oculata [7]; 400 nM,3%
same,MUFAs (%),Nannochloropsis oculata [7]; 400 nM,12%
same,n3 PUFAs (%),Nannochloropsis oculata [7]; 400 nM,17%
same,PUFAs (%),Nannochloropsis oculata [7]; 400 nM,76%
